Results published in patent publication US20070281900A1, “COMPOSITIONS AND METHODS FOR LIPID AND POLYPEPTIDE BASED siRNA [sequence] [sequence]” (NASTECH PHARMACEUTICAL COMPANY INC., priority 2006, published 2007).
Peptide text beside a SMILES is read from it.

Test system: 9L/LacZ cells
Experiment: Cell confluency as measure of effect of transfection condition on cell growth
Conditions: Qneg siRNA 100 nM, PN183 7 μM or PN73 2 μM where named, nontransfected cells 70%
Procedure: For each transfection mixture, 9L/LacZ cells (passage 8) were plated at density of 6.0×10^3 cells/well on a 96-well plate. […] The cationic lipid […]™ served as a positive transfection control. Non-transfected cells served as a negative transfection control and a positive control for cell growth.
Transfection efficiency was calculated by dividing the number of fluorescently labeled cells by the total number of cells and multiplying by 100. Cell confluency was used to measure the effect of each transfection condition on cell growth.

In the case of `C[C@@H](O)[C@H](NC(=O)[C@H](CCC(=O)O)NC(=O)[C@H](Cc1c[nH]c2ccccc12)NC(=O)[C@H](Cc1c[nH]c2ccccc12)NC(=O)[C@@H](NC(=O)[C@H](CCC(=O)O)NC(=O)[C@@H](N)CCCCN)[C@@H](C)O)C(=O)N[C@@H](Cc1c[nH]c2ccccc12)C(=O)N[C@@H](Cc1c[nH]c2ccccc12)C(=O)N[C@H](C(=O)N[C@@H](CCC(=O)O)C(=O)N[C@@H](Cc1c[nH]c2ccccc12)C(=O)N[C@@H](CO)C(=O)N[C@@H](CCC(N)=O)C(=O)N1CCC[C@H]1C(=O)NCC(=O)N[C@@H](CCCNC(=N)N)C(=O)N[C@@H](CCCCN)C(=O)N[C@@H](CCCCN)C(=O)N[C@@H](CCCNC(=N)N)C(=O)N[C@@H](CCCNC(=N)N)C(=O)N[C@@H](CCC(N)=O)C(=O)N[C@@H](CCCNC(=N)N)C(=O)N[C@@H](CCCNC(=N)N)C(=O)N[C@@H](CCCNC(=N)N)C(=O)N1CCC[C@H]1C(=O)N1CCC[C@H]1C(=O)N[C@@H](CCC(N)=O)C(N)=O)[C@@H](C)O` [PN183] (H-KETWWETWWTEWSQPGRKKRRQRRRPPQ-NH2), the “% Cell Confluency 20 nM” value (lipid group 20 nM) is reported as 70% and the “% Cell Confluency 60 nM” value (lipid group 60 nM) is reported as 70%.
